Test results from a melting point compilation (Tetko et al.; mined from patent text by program, amines drawn as free bases though some values may be those of a salt).

Row | SMILES | melting point [°C]
1 | O=C(Nc1ccccc1S(=O)(=O)c1ccccc1)N[C@@H](Cc1ccc(NC(=O)c2ccc(Cl)nc2Cl)cc1)C(=O)O | 207
2 | CNC(=O)Nc1snc(C)c1[N+](=O)[O-] | 249 to 251
3 | CC(C)COc1c(NCCCBr)c(=O)c1=O | 70 to 71
4 | O=C1NCCC[C@@H]1NS(=O)(=O)c1ccc(F)c(F)c1 | 153 to 155
5 | CCCCCCCCCc1cc(-c2ccccc2)c(OCC(=O)O)c(-c2ccccc2)c1 | 63 to 65
6 | COc1ccc(-c2nc(C(F)(F)F)cn2-c2ccc(Br)cc2)cc1 | 140 to 141
7 | COC(=O)c1cc([N+](=O)[O-])c(C=Cc2ccc(OC)cc2)c([N+](=O)[O-])c1 | 142 to 143
8 | CCCCSc1nc2c(cc1C#N)C(=O)CC(C)(C)C2 | 50 to 52
9 | O=C(CC[C@H]1CC[C@H](Nc2ncc3ncnc(Nc4ccc(F)c(Cl)c4)c3n2)CC1)N1CCOCC1 | 186 to 191
10 | COc1cc(O)c(C#N)c2cc(-c3ccc(O)c(F)c3)oc12 | 265 to 267
11 | Cn1c(=O)c2cnc(N)nc2n(C)c1=O | > 300
12 | CN(Cc1ccccc1)c1nc(N)nc(-c2cc(Cl)ccc2Cl)n1 | 163 to 164
13 | O[C@@H](CNCCOc1ccc2oc(-c3noc(C(F)(F)F)n3)cc2c1)COc1ccccc1Cl | 112 to 115
14 | O=C1c2ccc(Cl)cc2CC1Br (stereo not given) | 69 to 76
15 | COc1cc(C)c(C(O)c2c(Cl)c(Cl)nc(Cl)c2C(F)(F)F)c(OC)c1OC (stereo not given) | 131 to 135
16 | N#Cc1nn(-c2c(Cl)cc(C(F)(F)F)cc2Cl)cc1-c1ccccc1C(F)(F)F | 142 to 143
17 | O=C1CCN(Cc2ccccc2OC(F)(F)F)CC1C(c1ccc(F)cc1)c1ccc(F)cc1 (stereo not given) | 88 to 89
18 | COC(=O)C1(C)CCCC2(C)c3c(OC)cc(C(C)C)c(OC)c3CCC12 (stereo not given) | 133 to 135
19 | CC(=O)c1ccc(SCc2cc3c(cc2O)CCCO3)cc1 | 192 to 193
20 | CCNC(=O)NCc1ccc(/C=C/C(c2cc(Cl)c(Cl)c(Cl)c2)C(F)(F)F)c2ccccc12 (stereo not given) | 84 to 87

Row | SMILES | melting point [°C]
21 | Cc1cc(C)c2c(c1C)OC(C)(C)C2c1ccc(N(C)C)cc1 (stereo not given) | 124 to 125
22 | O=C(NC1CCC(CCN2CCN(c3nccc4c3OCC4)CC2)CC1)C(O)C(F)(F)F (racemic) | 185
23 | COc1ccc(C(=O)c2ccc(SCc3ccccc3)s2)cc1 | 103 to 105
24 | C/C=C/C(=O)NC(=O)OC | 149 to 150
25 | CCCNC(=O)[C@H](Cc1ccccc1)NC(=O)CNC(=O)OC(C)(C)C | 166 to 168
26 | CCCCN1C(=O)c2cncnc2N(C(=O)CN2CCN(C)CC2)c2ccccc21 | 153 to 154
27 | COc1ccc(-c2cc(F)cc3c2NC(CN)CO3)cc1 (stereo not given) | 72
28 | Cc1cc(OC2CCS(=O)(=O)CC2)cc(C)c1-c1cccc(COc2ccc(C3CC3C(=O)O)cc2)c1 (stereo not given) | 161 to 162
29 | COc1cc(OC)c(C(=O)n2cccc2Br)cc1OC | 120 to 121
30 | Cc1oc(-c2ccccc2)nc1COc1ccc(C(C)CCCC#N)cc1 (stereo not given) | 76 to 77
31 | CCCCc1nc2c(N)nc3ccccc3c2n1CCCCNS(=O)(=O)c1ccccc1 | 75.5 to 79
32 | CCOC(=O)C#CC(C)(C)OC(=O)Nc1ccc(-c2ncn(-c3ccc(OC(F)(F)F)cc3)n2)cc1 | 183 to 188
33 | c1ccc2c(c1)C[C@H]1Cc3ccccc3[C@H]1O2 (relative stereo) | 59 to 60
34 | Nc1ccc2c(c1)OCC21C(=O)N(CC2CCCO2)c2ccccc21 (stereo not given) | 71 to 74
35 | COC(=O)c1ccc(-c2cc(-c3cc4c(cc3C)CCCC4(C)C)[nH]n2)cc1 | 92 to 93
36 | O=C(CCCCl)c1ccc2cc(O)c(O)cc2c1 | 129 to 135
37 | CN(C)S(=O)(=O)c1ccc2c(c1)CNc1ccccc1O2 | 99 to 102
38 | CCN(c1nc(C)cc(C)n1)c1ccc(C(C)C)cc1SC | 64 to 66
39 | CN1CCN(c2nc3c(cc2F)c(=O)n(OCc2ccccc2)c(=O)n3C2CC2)CC1 | 188 to 189
40 | CN1C(=O)N(c2cc(Cl)cc(Cl)c2)C(=O)[C@]12CN(CC(=O)O)C[C@H]2c1ccc(C#N)cc1 (relative stereo) | 220

Row | SMILES | melting point [°C]
41 | COc1cc(S(C)=O)c(C)cc1O (stereo not given) | 165 to 166
42 | CCc1nc(C(=O)c2ccc(Cl)cc2Cl)c(C(C)=O)n1C(CC)CC | 63 to 64
43 | COC(=O)C1(Sc2cc(N=c3sc(=O)n4n3CCCC4)c(F)cc2Cl)CC1 | 149
44 | Nn1c(=O)n(-c2cc(Cl)ccc2O)c2ccc(C(F)(F)F)cc21 | 228 to 230
45 | COC(=O)N1C2CC3CC(C2)CC1C3 | 88
46 | CCCc1c(OCC2COc3cc(CC(=O)O)ccc3O2)ccc(C(C)=O)c1O (stereo not given) | 143 to 146
47 | CCCC(C(=O)O)n1c(=O)c(=O)[nH]c2ccccc21 (stereo not given) | 272 to 275
48 | CC[Si](CC)(CC)O[C@@H](C(=O)OC)[C@@H](NC(=O)OC(C)(C)C)c1ccc(C(N)=O)cc1 | 165
49 | COC(=O)c1ccc(OCC2CCCCC2)cc1 | 62 to 63
50 | CC(C)(CC(O)(C(=O)O)C(F)(F)F)c1ccc(C(N)=O)cc1 (stereo not given) | 244 to 245
51 | COc1ccc(CCc2ccc(C(F)(F)F)cc2)cc1 | 80
52 | CC(=O)c1cc2c(s1)C(NC(=O)c1ccc([N+](=O)[O-])cc1)C(O)C(C)(C)O2 (stereo not given) | 223 to 225
53 | COc1ccc(-c2c(Cl)ncnc2NS(=O)(=O)c2ccc(C(C)C)cc2)cc1 | 181 to 182
54 | Nc1cc(=O)n(-c2c(Cl)cc(C(F)(F)F)cc2Cl)[nH]1 | 206 to 207
55 | CC(=O)N(c1ccc(N2CCN(C)CC2)cc1)c1ncc2c(n1)S/C(=C/c1ccc(C(=O)O)cc1)C(=O)N2 | 326 to 330
56 | Clc1ccc(C2CC(n3cncn3)c3ccccc3N2)cc1 (stereo not given) | 150 to 152
57 | Cc1ccc(S(=O)(=O)OCCOc2ccc(Nc3ncc(C#N)c(-c4ccccc4)n3)cc2)cc1 | 147
58 | OCC1CNC2Cc3c[nH]c4cccc(c34)C2(O)C1 (stereo not given) | 145 to 149
59 | CS(=O)(=O)c1ccc(-c2cnn(Cc3cc4ccccc4s3)c(=O)c2-c2ccc(F)cc2)cc1 | 93 to 96

Next, values leading:

Row | melting point [°C] | SMILES
60 | 95 to 96 | Cc1cc(C(=O)OC(CC(C)C)C(=O)O)cc(C)n1 (racemic)
61 | 200 to 201 | C#CCC1(c2ccc(Cl)cc2)Cc2cc(OCC(=O)O)c(Cl)c(Cl)c2C1=O (stereo not given)
62 | 120 | CCn1cc(C(=O)O)c(=O)c2cc(F)c(N3CCNC(c4ccn(S(=O)(=O)c5ccccc5)c4)C3)cc21 (stereo not given)
63 | 80 to 115 | O=c1c(-c2ccc(F)cc2)c(-c2ccc(S(=O)(=O)C(F)(F)F)cc2)cnn1Cc1ccccc1
64 | 183 to 186 | Cc1cc(C)c(C)c(COc2ccc(-c3ccoc3C(=O)NNC(=O)c3ccc(O)c(C#N)c3)cc2)c1C
65 | 31 to 32 | COC(=O)c1cccn1Cc1ccccc1
66 | 126 to 127 | CN(CCO)Cc1cc(C(=O)c2ccc(Cl)cc2)cc(C(C)(C)C)c1O
67 | 114 to 115 | C=C(C1=C(CCC(=O)OC)C(=O)CC1OCc1ccc(Cl)cc1)c1ccccc1 (stereo not given)
68 | 171 | O=C(Oc1cc2c(c3ccccc13)Nc1ccccc1S2)c1ccccc1
69 | 113 to 114 | CCOC(=O)c1cn(-c2ccc(Oc3ccccc3)cc2)cn1
70 | 170 to 172 | CN1N=C(C2CCCCC2)CC1=O
71 | 161 to 163 | COC(=O)c1ccc(NS(C)(=O)=O)c(C=O)c1
72 | 53 to 55 | CSc1ccc(CCCC(=O)O)cc1
73 | 81 to 83 | CN(C)CCCOc1ccc(C(=O)NN)cn1
74 | 69 | CCOC(=O)C1(C(=O)OCC)C(CC)C(=O)N1Cc1ccc(OC)cc1OC (stereo not given)
75 | 154 | COc1cc(-n2c(=O)cc(C(F)(F)F)n(C)c2=O)c(F)cc1Br
76 | 128 to 131 | c1ccc2c(N3CCCCC3)nc(N3CCCCC3)nc2c1
77 | 111 to 115 | [N-]=[N+]=C(c1ccccc1)c1ccc(COCCNC(=O)Nc2ccccc2)cc1
78 | 140 to 144 | Fc1ccc(-c2nc(-c3ccccn3)cs2)cc1
79 | 65 to 66 | CSc1c(C)c(-c2ccc(Cl)cc2Cl)nn1C
80 | 151 to 152 | Cc1nc(N2CCC(NCCC3CC3)C2=O)sc1C(=O)NCc1ccc(F)cc1 (stereo not given)

Row | melting point [°C] | SMILES
81 | 184 to 186 | CCCCc1nc2c(N)nc3ccccc3c2n1CCCCO
82 | 129 to 131 | Cc1nc(-c2ccccc2)c(-c2ccccc2)n1CCCCCCNC(=O)Oc1ccccc1F
83 | 202 to 203 | NC1CC2=CNC=C3C=COCC1=C32 (stereo not given)
84 | 46 to 48 | CC(C)(CO)c1ccc(Cl)cc1
85 | 173 to 176 | CC(C)(C)NS(=O)(=O)c1ccccc1C=C1CCOC1=O
86 | 136 to 138 | O=S(=O)(c1ccc(F)cc1)c1ccc(SC2SCC(O)C(O)C2O)cc1 (stereo not given)
87 | 113 to 115 | COCCNc1c([N+](=O)[O-])cnc2ccccc12
88 | 203 | O=C(NC1CCC(CCN2CCN(c3nccc4c3OCC4)CC2)CC1)C1CCCOC1 (racemic)
89 | 253 to 254 | Cc1nc2c3c(c(CO)cc2n1C)CCC(c1ccccc1)N3 (stereo not given)
90 | 122 to 125 | Cc1cn(Cc2ccc3c(c2)-c2[nH]nc(-c4ccsc4)c2C3)cn1
91 | 190 to 191 | Fc1cccc(CSc2nnc(-c3ccnc4[nH]ccc34)o2)c1
92 | 256 | Cc1cc(-c2ccc(Cl)cc2)nc(-n2cnc(-c3ncc(S(N)(=O)=O)s3)c2)n1
93 | 72.5 to 73.5 | O=S(=O)(CCCl)c1ccc(O)cc1
94 | 250 to 255 | Cn1c(=O)c(-c2ccccc2)cc2cnc(N)nc21
95 | 123 to 125 | C=CCn1cc(C2CCN(CCOc3ccccc3C(=O)O)CC2)c2ccccc21
96 | 136 to 139 | CC(C(=O)O)c1ccc2cc(OCCCCCCc3cccc(O)c3O)ccc2c1 (stereo not given)
97 | 91 to 96 | Cc1c(C)c2c(c(C)c1OCc1ccccc1)CCC(C)(CC(=O)O)O2 (stereo not given)
98 | 172 to 173 | O=C(NCc1cccc(C(F)(F)F)c1)c1cncc2c1cnn2-c1ccc(F)cc1
99 | 87 to 89 | Cc1ccn(-c2ccc(-c3nc4cccnc4n3-c3ccc(CCNCC(O)COc4ccc(O)cc4)cc3)c(Cl)c2)n1 (stereo not given)
100 | 132 to 138 | NC(=O)c1cnc2ccccc2c1
